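Where inhibition never reached the appropriate level, the endpoint shown equals the highest concentration tested. Otherwise, values were interpolated linearly from a five-concentration, 48-hour dose response in 96-well plates. Abbreviation: GI50, concentration required for 50% inhibition of growth.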 Calls of active or inactive are those of the source. No stated cut-off is given here; in the data, active = GI50 up to about 1.1 µM and inactive = higher.
Tests used:
Experiment in all cases: growth of human tumour cells (NCI), 48 h
786-0 = tested on: 786-0
A549 = tested on: A549
BT-549 = tested on: BT-549
CAKI-1 = tested on: CAKI-1
COLO 205 = tested on: COLO 205
EKVX = tested on: EKVX
HCC 2998 = tested on: HCC 2998
HL-60 = tested on: HL-60
IGROV-1 = tested on: IGROV-1
M14 = tested on: M14
MDA-MB-435 = tested on: MDA-MB-435
NCI/ADR-RES = tested on: NCI/ADR-RES
OVCAR-4 = tested on: OVCAR-4
RXF 393 = tested on: RXF 393
SK-MEL-2 = tested on: SK-MEL-2
TK-10 = tested on: TK-10
U-251 = tested on: U-251
A498 = tested on: A498
T47D = tested on: T47D

Measured: GI50

CC(=O)O[C@H]1CC2C(C3CCC(C(C)CCC(=O)O)[C@]31C)[C@H](OC(C)=O)C[C@@H]1CC3(CC[C@]21C)OOC1(CC[C@]2(C)C4C[C@H](OC(C)=O)[C@]5(C)C(C(C)CCC(=O)O)CCC5C4[C@H](OC(C)=O)C[C@@H]2C1)OO3 (stereo not given in full)
inactive: 786-0 2.76 µM | A549 1.27 µM | BT-549 1.56 µM | CAKI-1 2.19 µM | COLO 205 1.91 µM | EKVX 2.81 µM | HCC 2998 2.03 µM | HL-60 1.51 µM | IGROV-1 2.12 µM | M14 2.53 µM | MDA-MB-435 1.94 µM | NCI/ADR-RES 2.63 µM | OVCAR-4 2.8 µM | RXF 393 1.36 µM | SK-MEL-2 1.77 µM | TK-10 2.75 µM | U-251 1.28 µM

C=CCn1c(=O)c(C(=O)Nc2nc(C34CC5CC(CC(C5)C3)C4)cs2)c(O)c2ccccc21
inactive: 786-0 39.8 µM | A498 25.3 µM | A549 18.2 µM | BT-549 24.4 µM | CAKI-1 58.9 µM | COLO 205 18.1 µM | EKVX 30.5 µM | HCC 2998 37.5 µM | HL-60 23.4 µM | IGROV-1 33.1 µM | MDA-MB-435 63.4 µM | NCI/ADR-RES 15 µM | OVCAR-4 39.2 µM | RXF 393 31.6 µM | TK-10 82.8 µM | U-251 50.2 µM

CC(=O)Oc1cc2oc(=O)cc(C)c2cc1OC(C)=O
inactive: 786-0 61 µM | A498 44.6 µM | A549 37.3 µM | COLO 205 48 µM | EKVX 52.5 µM | IGROV-1 27.9 µM | M14 50.6 µM | MDA-MB-435 48.4 µM | NCI/ADR-RES 32.4 µM | OVCAR-4 85.7 µM | SK-MEL-2 > 100 µM | TK-10 44.5 µM | U-251 51.1 µM

C=C[C@H]1CC[C@H]2[C@@H]3CC=C4C[C@@H](OC5OCC(O)C(O)C5O)CC[C@]4(C)[C@H]3CC[C@]12C (stereo not given in full)
inactive: 786-0 15.3 µM | A498 4.22 µM | A549 12.9 µM | CAKI-1 6.62 µM | COLO 205 21.7 µM | HL-60 29.7 µM | IGROV-1 10 µM | M14 16.1 µM | MDA-MB-435 15.9 µM | NCI/ADR-RES 15.9 µM | SK-MEL-2 16.6 µM | T47D 14.3 µM | U-251 14.9 µM

C[N+](C)=c1nc(N2CCOCC2)ss1
inactive: 786-0 > 100 µM | A498 4.14 µM | A549 47.3 µM | CAKI-1 > 100 µM | EKVX > 100 µM | HCC 2998 > 100 µM | HL-60 > 100 µM | IGROV-1 > 100 µM | M14 > 100 µM | RXF 393 > 100 µM | SK-MEL-2 > 100 µM | TK-10 > 100 µM | U-251 > 100 µM

CCOc1ccc2nc(NC(=O)C(=O)C(C(=O)c3ccccc3F)C3OC(=O)c4ccccc43)sc2c1 (stereo not given)
inactive: A498 25.8 µM | A549 31.6 µM | CAKI-1 31.8 µM | COLO 205 15.6 µM | EKVX 19.1 µM | HCC 2998 15.9 µM | HL-60 16.8 µM | IGROV-1 25.6 µM | M14 16.5 µM | OVCAR-4 19.2 µM | RXF 393 21.5 µM | SK-MEL-2 19.6 µM | TK-10 23.3 µM | U-251 11.1 µM

c1ccc2c3c([nH]c2c1)C1CCCN1CC3 (stereo not given)
inactive: 786-0 > 10 µM | A498 > 10 µM | CAKI-1 > 10 µM | COLO 205 > 10 µM | EKVX > 10 µM | HCC 2998 > 10 µM | HL-60 > 10 µM | IGROV-1 > 10 µM | M14 > 10 µM | MDA-MB-435 > 10 µM | NCI/ADR-RES > 10 µM | OVCAR-4 > 10 µM | RXF 393 > 10 µM | SK-MEL-2 > 10 µM | T47D > 10 µM | TK-10 > 10 µM | U-251 > 10 µM

COC(C(=O)NN)c1ccccc1 (stereo not given)
inactive: 786-0 > 100 µM | A549 > 100 µM | BT-549 > 100 µM | CAKI-1 > 100 µM | EKVX > 100 µM | HCC 2998 > 100 µM | IGROV-1 > 100 µM | M14 > 100 µM | MDA-MB-435 > 100 µM | NCI/ADR-RES > 100 µM | RXF 393 > 100 µM | SK-MEL-2 > 100 µM | TK-10 > 100 µM | U-251 > 100 µM

CC(C)CCc1n[nH]c(=O)n1/N=C\c1ccccc1
inactive: 786-0 > 100 µM | A498 49 µM | A549 > 100 µM | CAKI-1 > 10 µM | COLO 205 > 100 µM | EKVX > 100 µM | HCC 2998 > 100 µM | IGROV-1 > 100 µM | M14 > 100 µM | MDA-MB-435 > 100 µM | NCI/ADR-RES 57.4 µM | OVCAR-4 > 100 µM | RXF 393 > 100 µM | SK-MEL-2 93.1 µM | T47D > 100 µM | TK-10 > 100 µM | U-251 > 100 µM

CC1(C)CC[C@]2(C(=O)O)CC[C@]3(C)C(=CC[C@@H]4[C@@]5(C)CC[C@@H]6OC(C)(C)OC[C@@]6(C)[C@@H]5CC[C@]43C)[C@H]2C1
inactive: 786-0 10 µM | A498 15.4 µM | CAKI-1 9.91 µM | COLO 205 11.3 µM | EKVX 5.08 µM | HCC 2998 13.2 µM | HL-60 8.51 µM | IGROV-1 11.4 µM | M14 15.5 µM | MDA-MB-435 8.55 µM | NCI/ADR-RES 16.9 µM | OVCAR-4 3.05 µM | SK-MEL-2 17.3 µM | T47D 13.9 µM | TK-10 11.6 µM | U-251 5.89 µM

O=C(Cn1c(=O)oc2ccccc21)N(c1ccccc1)c1ccccc1
inactive: 786-0 > 100 µM | A498 > 100 µM | BT-549 > 100 µM | CAKI-1 > 100 µM | COLO 205 > 100 µM | EKVX 11.9 µM | HL-60 > 100 µM | IGROV-1 26.5 µM | M14 > 100 µM | MDA-MB-435 > 100 µM | NCI/ADR-RES 77.6 µM | RXF 393 > 100 µM | SK-MEL-2 > 100 µM | TK-10 > 100 µM | U-251 95.1 µM

N#CCCN(CCC#N)c1ccc(/C=C(/NC(=O)c2cc([N+](=O)[O-])ccc2Cl)C(=O)NN)cc1
inactive: 786-0 > 100 µM | A498 > 100 µM | A549 > 100 µM | CAKI-1 > 100 µM | COLO 205 > 100 µM | EKVX > 100 µM | HCC 2998 > 100 µM | IGROV-1 > 100 µM | M14 > 100 µM | OVCAR-4 > 100 µM | RXF 393 > 100 µM | SK-MEL-2 > 100 µM | TK-10 > 100 µM | U-251 > 100 µM

CC(C)OC(=O)C1=C2c3ncccc3C(=O)N2[C@@H](Cl)[C@@H](Cl)[C@@H]1Cl
inactive: 786-0 73.8 µM | A498 > 100 µM | A549 > 100 µM | BT-549 > 100 µM | CAKI-1 > 100 µM | COLO 205 > 100 µM | EKVX > 100 µM | HCC 2998 > 100 µM | HL-60 25.8 µM | IGROV-1 96.4 µM | M14 > 100 µM | MDA-MB-435 > 100 µM | NCI/ADR-RES > 100 µM | OVCAR-4 > 100 µM | RXF 393 > 100 µM | SK-MEL-2 > 100 µM | TK-10 > 100 µM | U-251 > 100 µM

COc1cc(C2SCC(=O)N2c2ccccc2Cl)cc(OC)c1OC (stereo not given)
inactive: 786-0 > 100 µM | A498 > 100 µM | A549 > 100 µM | BT-549 54 µM | CAKI-1 > 100 µM | COLO 205 > 100 µM | EKVX > 100 µM | HCC 2998 > 100 µM | HL-60 37.8 µM | IGROV-1 > 100 µM | M14 > 100 µM | MDA-MB-435 23.7 µM | NCI/ADR-RES 88.5 µM | OVCAR-4 > 100 µM | SK-MEL-2 > 100 µM | TK-10 > 100 µM | U-251 > 100 µM

CCC(C)[C@@H](NCc1ccccc1)[C@H](OCc1ccccc1)[C@@H]1COC(C)(C)O1 (stereo not given in full)
inactive: 786-0 18.8 µM | A549 25.4 µM | COLO 205 15.9 µM | EKVX 20.5 µM | IGROV-1 17.6 µM | M14 29.2 µM | MDA-MB-435 32.5 µM | NCI/ADR-RES 21.1 µM | OVCAR-4 28.8 µM | SK-MEL-2 18.2 µM | TK-10 15.6 µM | U-251 19.2 µM

O=C1CCCC2=C1CC1=C(CCCC1=O)N2c1ccc(Cl)cc1
inactive: 786-0 > 100 µM | A498 > 100 µM | A549 > 100 µM | BT-549 > 100 µM | CAKI-1 > 100 µM | COLO 205 > 100 µM | EKVX > 100 µM | HCC 2998 > 100 µM | HL-60 28.1 µM | IGROV-1 > 100 µM | M14 > 100 µM | MDA-MB-435 > 100 µM | NCI/ADR-RES > 100 µM | OVCAR-4 > 100 µM | RXF 393 > 100 µM | TK-10 > 100 µM | U-251 > 100 µM

Cn1c(=O)c2nc(N3CCCCC3)cnc2n(C)c1=O
inactive: A498 > 100 µM | A549 > 100 µM | CAKI-1 > 100 µM | COLO 205 > 100 µM | EKVX > 100 µM | HCC 2998 > 100 µM | HL-60 > 100 µM | IGROV-1 > 100 µM | M14 > 100 µM | OVCAR-4 > 100 µM | TK-10 > 100 µM | U-251 > 100 µM
